Results reported in publication PMC9382192, “Combined treatment with epigenetic agents enhances anti-tumor activity of MAGE-D4 peptide-specific T cells by upregulating the MAGE-D4 expression in glioma” (Frontiers in Oncology, 2022).

How the values were obtained:
[1] = system: MAGE-D4 promoter; assay: Pyrosequencing of MAGE-D4 promoter in U251; format: cell-based, human; conditions: U251, compared with control group
Description: The human glioma cell lines (U87-MG and U251) were obtained from the Cell Bank of Type Culture Collection of the Chinese Academy of Science (Shanghai, China). […] A3656), valproic acid (VPA, CAS No. 99-66-1), and trichostatin A (TSA, CAS No. 58880-19-6) were purchased from Sigma-Aldrich Corporation (St. Louis, MO, USA). DAC and TSA were dissolved in DMSO to a concentration of 10 mM. Aliquots were stored at -80°C and diluted with media before being used. Drug treatments were divided into seven groups: (1) DAC group: cells were cultured in medium on the presence of 1 μM DAC for 120 h; (2) VPA group: cells were grown in medium containing 1 mM VPA for 120 h; (3) TSA group: cells were cultured in medium supplemented with 1 μM TSA for 24 h; (4) D + V group: cells were cultured with 1 μM DAC and 1 mM VPA for 120 h; (5) D + T group: cells were cultured with 1 μM DAC for 120 h, followed by 1 μM TSA for 24 h; (6) Control group: cells were cultured with 0.09% DMSO, which is the highest concentration of DMSO used in this study in consideration of the potential toxicity of DMSO to living cells. Human recombinant interleukin (IL) IL-2, IL-4, and human recombinant granulocyte/macrophage colony-stimulating factor (GM-CSF) were purchased from R&D Systems. Genomic DNA was isolated from cells using a DNA Isolation Kit (Vazyme, China). The methylation status of the MAGE-D4 promoter in cells was quantified by the PyroMark Q96 ID pyrosequencing platform (Qiagen), which was performed by Shanghai […] Biotech Co., Ltd. The methylation status of each site was analyzed automatically by the accompanying software Pyro Q-CpG (Qiagen). Two regions in the core promoter were detected, which contained 18 CpG sites. Primers used in pyrosequencing were as follows: region 1: [NT] (forward) and [NT] (reverse); region 2: [NT] (forward) and [NT] (reverse). Sequences of the MAGE-D4 promoter and pyrosequencing regions containing CpG sites are listed in Supplemental Materials.

[2] = system: HLA-A2; assay: HLA-A2 expression in U251; format: cell-based, human; conditions: DAC 1 μM 120 h, TSA 1 μM 24 h
Description: The human glioma cell lines (U87-MG and U251) were obtained from the Cell Bank of Type Culture Collection of the Chinese Academy of Science (Shanghai, China). […] A3656), valproic acid (VPA, CAS No. 99-66-1), and trichostatin A (TSA, CAS No. 58880-19-6) were purchased from Sigma-Aldrich Corporation (St. Louis, MO, USA). DAC and TSA were dissolved in DMSO to a concentration of 10 mM. Aliquots were stored at -80°C and diluted with media before being used. Drug treatments were divided into seven groups: (1) DAC group: cells were cultured in medium on the presence of 1 μM DAC for 120 h; (2) VPA group: cells were grown in medium containing 1 mM VPA for 120 h; (3) TSA group: cells were cultured in medium supplemented with 1 μM TSA for 24 h; (4) D + V group: cells were cultured with 1 μM DAC and 1 mM VPA for 120 h; (5) D + T group: cells were cultured with 1 μM DAC for 120 h, followed by 1 μM TSA for 24 h; (6) Control group: cells were cultured with 0.09% DMSO, which is the highest concentration of DMSO used in this study in consideration of the potential toxicity of DMSO to living cells. […] The cells were then harvested, washed with PBS buffer three times, and analyzed by a FACScan flow cytometer (BD Biosciences, Franklin Lakes, NJ, USA) using BD AccuriTM C6 Software (BD Biosciences).

[3] = system: MAGE-D4 promoter; assay: Pyrosequencing of MAGE-D4 promoter in U87; format: cell-based, human; conditions: U87, compared with control group
Description: The human glioma cell lines (U87-MG and U251) were obtained from the Cell Bank of Type Culture Collection of the Chinese Academy of Science (Shanghai, China). […] A3656), valproic acid (VPA, CAS No. 99-66-1), and trichostatin A (TSA, CAS No. 58880-19-6) were purchased from Sigma-Aldrich Corporation (St. Louis, MO, USA). DAC and TSA were dissolved in DMSO to a concentration of 10 mM. Aliquots were stored at -80°C and diluted with media before being used. […] The methylation status of the MAGE-D4 promoter in cells was quantified by the PyroMark Q96 ID pyrosequencing platform (Qiagen), which was performed by Shanghai […] Biotech Co., Ltd. The methylation status of each site was analyzed automatically by the accompanying software Pyro Q-CpG (Qiagen). Two regions in the core promoter were detected, which contained 18 CpG sites. […]

[4] = system: IL-2; assay: IL-2 ELISA of DC/T-cell co-culture supernatant; format: cell-based, human; conditions: 72 h co-culture supernatant, versus negative control peptide
Description: Production of cytokines in the supernatants was determined using commercially available ELISA kits (Cloud-Clone Corporation, Wuhan, China) according to the protocol of the manufacturer. Approximately 50 μl of supernatant and different concentration standards were added and mixed with 100 μl of horseradish peroxidase (HRP) labeled detection antibody against a 96-well plate, respectively, except for the blank control. After incubation at 37°C for 60 min, we washed the plate five times. Add substrate A and substrate B 50 μl respectively, incubate for 15min in a 37°C incubator in dark. Then, 50 μl of stop solution was added and a 450 nm absorbance value (OD value) was measured within 15 min. The regression equation of the standard curve is calculated according to the concentration of the standard substance and the OD value, and the corresponding sample concentration is calculated on the basis of the regression equation.

[5] = system: autologous T cells; conditions: T cells with peptide-pulsed autologous DCs 10:1, 72 h; versus DCs without peptide
Description: PBMCs were isolated from the peripheral blood samples of 8 HLA-A2^+ healthy donors, with University Ethics Review Committee-approved, written consent. The effector T lymphocytes and DCs were prepared by our published method ([31]). CD8^+ T cells were isolated from PBMCs using CD8^+ negative selection MicroBeads EasySep™ Human CD8^+ T Cell Isolation Kit (17953, stemcell) according to the manufacturers.
For T-cell stimulation, T cells were cultured with RPMI1640 complete medium containing IL-2 (20 ng/ml) mixed with peptide-pulsed autologous DCs at a ratio of 10:1 and co-cultured for 72 h. The supernatant of DCs and T cells co-cultured for 72h was used to detect IL-2 and γ-IFN. The capacity of peptide-pulsed DCs to stimulate the proliferation of autologous T cells was evaluated using a Cell Counting Kit-8 (CCK-8, Beiltime Biotec, China), as described using our published method ([31]). CCK-8 solution (20 μl/well) was added in 2 h before the end of culture. Then, the optical density (OD) was measured by microplate tester. The stimulation index (SI) is calculated according to the following formula: SI = (experiment well OD value − background OD value)/(blank control well OD value − background OD value).

[6] = system: U251; assay: LDH cytotoxicity assay and HLA block, U251; format: cell-based, human; conditions: DAC + TSA-treated U251, E:T 50:1, 4 h
Description: The human glioma cell lines (U87-MG and U251) were obtained from the Cell Bank of Type Culture Collection of the Chinese Academy of Science (Shanghai, China). Decitabine (DAC, CAS No. A3656), valproic acid (VPA, CAS No. 99-66-1), and trichostatin A (TSA, CAS No. 58880-19-6) were purchased from Sigma-Aldrich Corporation (St. Louis, MO, USA). DAC and TSA were dissolved in DMSO to a concentration of 10 mM. Aliquots were stored at −80°C and diluted with media before being used. Drug treatments were divided into seven groups: (1) DAC group: cells were cultured in medium on the presence of 1 μM DAC for 120 h; (2) VPA group: cells were grown in medium containing 1 mM VPA for 120 h; (3) TSA group: cells were cultured in medium supplemented with 1 μM TSA for 24 h; (4) D + V group: cells were cultured with 1 μM DAC and 1 mM VPA for 120 h; (5) D + T group: cells were cultured with 1 μM DAC for 120 h, followed by 1 μM TSA for 24 h; (6) Control group: cells were cultured with 0.09% DMSO, which is the highest concentration of DMSO used in this study in consideration of the potential toxicity of DMSO to living cells. Human recombinant interleukin (IL) IL-2, IL-4, and human recombinant granulocyte/macrophage colony-stimulating factor (GM-CSF) were purchased from R&D Systems.
The cytotoxic activity of MAGE-D4 peptide-specific CTLs to glioma cells was determined according to the instructions of the manufacturers by our published method ([31]). […] Four hours later, suspended cells were collected for CD107a flow cytometry, meanwhile, the supernatant was collected and analyzed with granzyme A and perforin ELISA kit (Cloud-Clone Corporation, Wuhan, China) at 450 nm, and the LDH kit (Promega, USA) at 490 nm. The percentage of specific lysis was calculated using the following formula: [(experimental release − spontaneous release)/(maximum release − spontaneous release)] × 100. […] Then, the cytotoxicity assay was measured and calculated as mentioned above.

[7] = molecular target: peptide/HLA-A2 complex (Homo sapiens, UniProt P04439, D140Y/D185E/D98H/E176V/E277Q/G131W/G231S/I119V/I121R/I166T/I218V/L300P/L318F/N151K/N90K/P208A/P217A/Q86G/Q94H/R138H/R169H/T345S); assay: Peptide/HLA-A2 complex stability assay on T2 cells; format: binding; conditions: 50 μM peptide + β2 microglobulin 2.5 μg/ml, 18 h 37°C, brefeldin A 1 h, read at 0, 2, 4, 6 h, flow cytometry
Description: T2 cells were collected and placed in 24-well plates (1 × 10^6/ml), 1 ml in each well. Predictive peptides (50 μM) and β2 microglobulin (2.5 μg/ml) were added, respectively. […] After the incubation, T2 cells were washed twice with cold PBS to clear the unbound peptide, then brefeldin A (10 μg/m) was added and incubated for 1 h. Then, cells were washed and incubated at 37°C for 0, 2, 4, and 6 h; FITC-labeled mouse anti-human HLA-A2 monoclonal antibody was added and incubated at 4°C for 30 min under dark conditions. The MFI of cells was detected by flow cytometry after washing twice. The results are expressed as dissociation complex 50 (DC50), meaning the time required for the loss of 50% of the stabilized peptide/complex.

[8] = system: HLA-A2; assay: Peptide binding assay on T2 cells; parameters: species or system human; conditions: 50 µg/ml peptide, 37°C 18 h, FITC anti-HLA-A2 (BB7.2), flow cytometry, FI = (MFI peptide − MFI background)/MFI background
Description: Peptide binding affinity to HLA-A2 was assessed using T2 cells, a cell line that expresses HLA-A2 molecules but is deficient in antigen presentation. […] After incubation, the cells were washed in Phosphate buffered saline (PBS) and further incubated with FITC-conjugated anti-HLA-A2 antibody (BB7.2; BD Biosciences) at 4°C for 45 min. The cells were then washed and re-suspended with 300 µl of PBS and subjected to flow cytometer analysis (FACS Calibur, BD Biosciences). The fluorescence index (FI) was calculated as follows: FI = mean fluorescence intensity (MFI) with the given peptide − MFI without peptide/MFI without peptide.

Compound: Nc1ncn([C@H]2C[C@H](O)[C@@H](CO)O2)c(=O)n1 [DAC, Decitabine]
- methylation level of MAGE-D4 promoter region 1 [1]: decreased significantly
- HLA-A2 levels [2]: elevated HLA-A2 levels with statistical significance
- methylation level of MAGE-D4 promoter region 1 [3]: decreased significantly

Compound: CCCC(CCC)C(=O)O [VPA, valproic acid]
- methylation level of MAGE-D4 promoter region 1 [1]: decreased significantly
- methylation level of MAGE-D4 promoter region 2 [1]: decreased significantly
- total methylation levels of regions 1 and 2 of MAGE-D4 core promoter [1]: decreased significantly
- methylation level of MAGE-D4 promoter region 1 [3]: decreased significantly

Compound: ALQLDPETL [Peptide P5]
- IL-2 secreted by DC-stimulated T cells [4]: higher IL-2
- stimulation index (SI), T-cell proliferation, CCK8 [5]: can induce T-cell proliferation

Compound: ILSNEPWEL [Peptide P4]
- cytotoxicity of peptide-specific T cells (specific lysis, LDH) [6]: cytotoxicity on the DAC + TSA-treated U251 cells with statistical significance
- stimulation index (SI), T-cell proliferation, CCK8 [5]: can induce T-cell proliferation
- DC50 (time required for 50% dissociation of the HLA-A*0201/peptide complex) [7]: >2 h

Compound: SLGPGLRIL [Peptide P3]
- FI (fluorescence index, HLA-A*0201 binding affinity) [8]: 0.887

Compound: SVQSESYSV [Peptide P1]
- FI (fluorescence index, HLA-A*0201 binding affinity) [8]: 0.007

Compound: TLTSFDIHI [Peptide P2]
- FI (fluorescence index, HLA-A*0201 binding affinity) [8]: 0.877

Compound: VLCLPPRNV [Peptide P7]
- DC50 (time required for 50% dissociation of the HLA-A*0201/peptide complex) [7]: <2 h
